We go through seven compounds from PubChem BioAssay (NCI).

SMILES strings stand for the structures. Values joined by “and” are separate entries in the source; they are usually repeats but may differ in a detail not shown here. Equal values may be shown once.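 Method: 48-hour compound exposure of cells in 96-well plates, five concentrations, linear interpolation of endpoints. Abbreviation: GI50, concentration required for 50% inhibition of growth. Definition used: TGI = concentration required for complete inhibition of growth.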

Assay in all cases: NCI-60 cell line screen, 48 h
Assay [1] has as its system A549 NSCLC.
Assay [2] deals with COLO 205 colon.
The test system of assay [3] is EKVX NSCLC.
In assay [4] the test system is HS 578T breast.
Assay [5] deals with MDA-MB-231 breast.
Assay [6] deals with MDA-MB-435.
The subject of assay [7] is NCI-H226 lung.
The subject of assay [8] is OVCAR-3 ovarian.
Assay [9] concerns SF-268 CNS.
For assay [10], the system named is SK-MEL-28 melanoma.

In the case of `CC(=O)OCCCC#CC#Cc1cccc(=O)o1`, the GI50 in assay [1] is 20.4 µM; in assay [2] it was 19.4 µM; in assay [3], 16.9 µM; in assay [4] it was 25.8 µM; in assay [5], 13.7 µM; in [6], 16 µM. In addition, the GI50 is 20.8 µM in assay [7], 2.89 µM in assay [8], 19.4 µM in assay [9] and 23.9 µM in assay [10]. For the same compound, the TGI in [1] is 42.9 µM; in [2], 41.8 µM; in assay [3], 36.4 µM; in assay [4] it was 56.7 µM; in assay [5], 29 µM; in assay [6], 31.4 µM. Besides, the TGI came out at 52.8 µM in assay [7], 14.2 µM in assay [8], 41.1 µM in assay [9] and 55.8 µM in assay [10].

With `CC1Cc2ccccc2N1C(=O)Cc1nc(N2CCOCC2)cc(=O)[nH]1` (stereo not drawn), the GI50 in [1] was 17.3 µM and 24.5 µM; in assay [2], 17.4 µM and 53.8 µM; in [3] it was 7.06 µM and 17.1 µM; in assay [4], 1.75 µM and 4.13 µM; in assay [5], 26.4 µM and 31.3 µM; in assay [6], 20.9 µM and 27.7 µM. Also, the GI50 is 36.4 µM and 32.5 µM in assay [7]; 6.37 µM and 12.8 µM in assay [8]; 18.1 µM and 19.9 µM in assay [9]; 5.13 µM and 18.5 µM in assay [10]. In addition, the TGI in assay [1] was over 100 µM; in assay [2], 46.2 µM and > 100 µM; in [3], over 100 µM; in [4], 33.7 µM and 49.8 µM; in [5] it was over 100 µM; in [6] it was over 100 µM. Further, the TGI in [7], in [8], in assay [9] and in [10] was over 100 µM in each case.

In the case of `Cc1ccc(OCCOCCOCCOCCOCCOc2ccc(C)n(O)c2=S)c(=S)n1O`, the GI50 in [1] was 0.0741 µM; in [2] it was 0.0428 µM; in assay [3] it was 0.0392 µM; in assay [4] it was 1.67 µM; in [5], 0.062 µM; in [6], 0.186 µM. Moreover, the GI50 in assay [7] is 0.0576 µM; in assay [8], 0.0377 µM; in assay [9], 0.0693 µM; in [10] it was 0.23 µM. Besides, the TGI in [1] is over 100 µM; in [2], over 100 µM; in assay [3] it was over 100 µM; in [4] it was 74.6 µM; in assay [5], over 100 µM; in assay [6] it was 52.6 µM. For the same compound, the TGI in assay [7] was 14.7 µM; in [8], 18.7 µM; in assay [9] it was over 100 µM; in [10], over 48.7 µM.

`Cc1[nH]nc2ncc(C(=O)N3CCC[C@H]3c3ccc(Cl)cc3)cc12`: the GI50 was over 100 µM in assay [1]; 79.8 µM in [3]; over 100 µM in [4]; over 100 µM in assay [5]; 98.1 µM in assay [6]; 64.1 µM in [7]. The GI50 was 64.2 µM in assay [8], over 100 µM in assay [9] and over 100 µM in assay [10]. For the same compound, the TGI in assay [1], in assay [3], in [4], in assay [5], in assay [6] and in assay [7] was over 100 µM throughout. For the same compound, the TGI in [8], in assay [9] and in assay [10] was over 100 µM each time.

With `Cc1ccsc1-c1ccc2c(c1)COC2(CCCN(C)C)c1ccc(F)cc1` (stereo not drawn), the GI50 is 4.48 µM in assay [1]; 1.92 µM in assay [2]; 4.64 µM in [3]; 2.39 µM in assay [4]; 1.84 µM in assay [5]; 1.68 µM in assay [6]. Besides, the GI50 in assay [7] was 8.59 µM; in assay [8], 2.64 µM; in [9], 4.28 µM; in assay [10], 1.76 µM. Further, the TGI in assay [1] worked out at 18.1 µM; in assay [2], 4.19 µM; in [3] it was 18.5 µM; in assay [4], 9.07 µM; in assay [5] it was 6 µM; in [6], 3.24 µM. The TGI stood at 25.3 µM in assay [7], 9.02 µM in assay [8], 17.1 µM in [9] and 3.33 µM in assay [10].

In the case of `CN(C)C=Nc1c(I)cc(I)c(CCC(=O)O)c1I`, the GI50 in assay [1], in [2], in assay [3], in assay [4], in assay [5] and in [6] was over 100 µM throughout. Also, the GI50 in assay [7], in assay [8], in assay [9] and in assay [10] was over 100 µM each time. For the same compound, the TGI in [1], in assay [2], in [3], in assay [4], in [5] and in [6] was over 100 µM in each case. The TGI in [7], in [8], in assay [9] and in [10] was over 100 µM throughout.

Turning to `N#CC1=C(N)Oc2c(sc3c(Br)cccc23)C1c1ccc(Cl)cc1` (stereo not drawn), the GI50 in assay [1] is 1.16 µM; in [2] it was 0.774 µM; in [3] it was 2.23 µM; in [4] it was 0.855 µM; in [5], 1.32 µM; in [6], 0.277 µM. The GI50 in assay [7] was 1.49 µM; in [8], 0.272 µM; in assay [9], 0.917 µM; in [10], 1.15 µM. The TGI in assay [1] was 3.52 µM; in assay [2], 2.72 µM; in assay [3], 17.4 µM; in assay [4], 18.1 µM; in assay [5] it was 4.69 µM; in [6], 1.01 µM. For the same compound, the TGI was 10.4 µM in [7], 0.749 µM in [8], 7.62 µM in assay [9] and 4.45 µM in assay [10].
